From US20180036289A1 (Gilead Sciences, Inc., priority 2016, published 2018)

What was measured:
A-204 = test: Cell proliferation assay (ATPlite), drug with vs without cobicistat; type: cell-based; conditions: A-204 cell line; 120 hours incubation
Protocol: (§1) All cell lines were obtained from the American Type Culture Collection (ATCC) Manassas, Va. (US). Master and working cell banks (MCB and WCB) were prepared by subculturing in ATCC-recommended media and freezing protocols (www.atcc.org). Cell line stocks for the assays were prepared from the WCB. The MCB, WCBs and assay stocks were prepared within respectively 3, 6 and 9 passages of the ATCC vial.
(§2) Solid powders of reference compounds were weighed on a calibrated balance and dissolved in 100% DMSO. DMSO samples were stored at room temperature. At the day of the experiment, the compound stock was diluted in 3.16 fold steps in 100% DMSO to obtain a 9-point dilution series. This was further diluted 31.6 times in 20 mM sterile Hepes buffer pH 7.4. A volume of 5 μl was transferred to the cells to generate a test concentration range from 3.16×10^−5M to 3.16×10^−9 M in duplicate. The final DMSO concentration during incubation was […] in all wells.
(§3) An assay stock was thawed and diluted in its ATCC recommended medium and dispensed in a 384-well plate, depending on the cell line used, at a concentration of 200-3200 cells per well in 45 μl medium. For each used cell line the optimal cell density is used. The margins of the plate were filled with phosphate-buffered saline. Plated cells were incubated in a humidified atmosphere of 5% CO2 at 37° C. After 24 hours, 5 μl of compound dilution was added and plates were further incubated for another 120 hours. After 120 hours, 25 μl of ATPlite 1Step™ (PerkinElmer) solution was added to each well, and subsequently shaken for 2 minutes. After 10 minutes of incubation in the dark, the luminescence was recorded on an Envision multimode reader (PerkinElmer).
(§4) IC50s were calculated by non-linear regression using IDBS XLfit 5. The percentage growth after 120 h (%-growth) was calculated as follows: 100%×(luminescencet=120h/luminescenceuntreated,t=120h). This was fitted to the ^10log compound concentration (conc) by a 4-parameter logistics curve: %−growth=bottom+(top−bottom)/(1+10^(log IC50-conc)*hill)), where hill is the Hill-coefficient, and bottom and top the asymptotic minimum and maximum cell growth that the compound allows in that assay.

A-498 = test: as above; type: cell-based; conditions: A-498 cell line; 120 hours incubation
Protocol: as §1, §2, §3, §4

A-549 = test: as above; type: cell-based; conditions: A-549 cell line; 120 hours incubation
Protocol: as §1, §2, §3, §4

A375 = test: as above; type: cell-based; conditions: A375 cell line; 120 hours incubation
Protocol: as §1, §2, §3, §4

A388 = test: as above; type: cell-based; conditions: A388 cell line; 120 hours incubation
Protocol: as §1, §2, §3, §4

ACHN = test: as above; type: cell-based; conditions: ACHN cell line; 120 hours incubation
Protocol: as §1, §2, §3, §4

BT-549 = test: as above; type: cell-based; conditions: BT-549 cell line; 120 hours incubation
Protocol: as §1, §2, §3, §4

BxPC-3 = test: as above; type: cell-based; conditions: BxPC-3 cell line; 120 hours incubation
Protocol: as §1, §2, §3, §4

DLD-1 = test: as above; type: cell-based; conditions: DLD-1 cell line; 120 hours incubation
Protocol: as §1, §2, §3, §4

Daoy = test: as above; type: cell-based; conditions: Daoy cell line; 120 hours incubation
Protocol: as §1, §2, §3, §4

DoTc2 4510 = test: as above; type: cell-based; conditions: DoTc2 4510 cell line; 120 hours incubation
Protocol: as §1, §2, §3, §4

HCT 116 = test: as above; type: cell-based; conditions: HCT 116 cell line; 120 hours incubation
Protocol: as §1, §2, §3, §4

K-562 = test: as above; type: cell-based; conditions: K-562 cell line; 120 hours incubation
Protocol: as §1, §2, §3, §4

KU812 = test: as above; type: cell-based; conditions: KU812 cell line; 120 hours incubation
Protocol: as §1, §2, §3, §4

MG-63 = test: as above; type: cell-based; conditions: MG-63 cell line; 120 hours incubation
Protocol: as §1, §2, §3, §4

MIA PaCa-2 = test: as above; type: cell-based; conditions: MIA PaCa-2 cell line; 120 hours incubation
Protocol: as §1, §2, §3, §4

OVCAR-3 = test: as above; type: cell-based; conditions: OVCAR-3 cell line; 120 hours incubation
Protocol: as §1, §2, §3, §4

PA-1 = test: as above; type: cell-based; conditions: PA-1 cell line; 120 hours incubation
Protocol: as §1, §2, §3, §4

RT4 = test: as above; type: cell-based; conditions: RT4 cell line; 120 hours incubation
Protocol: as §1, §2, §3, §4

SHP-77 = test: as above; type: cell-based; conditions: SHP-77 cell line; 120 hours incubation
Protocol: as §1, §2, §3, §4

SJCRH30 = test: as above; type: cell-based; conditions: SJCRH30 cell line; 120 hours incubation
Protocol: as §1, §2, §3, §4

SK-N-FI = test: as above; type: cell-based; conditions: SK-N-FI cell line; 120 hours incubation
Protocol: as §1, §2, §3, §4

SNU-C2B = test: as above; type: cell-based; conditions: SNU-C2B cell line; 120 hours incubation
Protocol: as §1, §2, §3, §4

SUP-T1 = test: as above; type: cell-based; conditions: SUP-T1 cell line; 120 hours incubation
Protocol: as §1, §2, §3, §4

SW48 = test: as above; type: cell-based; conditions: SW48 cell line; 120 hours incubation
Protocol: as §1, §2, §3, §4

SW620 = test: as above; type: cell-based; conditions: SW620 cell line; 120 hours incubation
Protocol: as §1, §2, §3, §4

SW948 = test: as above; type: cell-based; conditions: SW948 cell line; 120 hours incubation
Protocol: as §1, §2, §3, §4

T24 = test: as above; type: cell-based; conditions: T24 cell line; 120 hours incubation
Protocol: as §1, §2, §3, §4

VA-ES-BJ = test: as above; type: cell-based; conditions: VA-ES-BJ cell line; 120 hours incubation
Protocol: as §1, §2, §3, §4

TT = TT cell line; 120 hours incubation
Protocol: as §1, §2, §3, §4

Structure (SMILES): CC[C@]1(O)C[C@H]2CN(CCc3c([nH]c4ccccc34)[C@@](C(=O)OC)(c3cc4c(cc3OC)N(C=O)[C@H]3[C@@](O)(C(=O)OC)[C@H](OC(C)=O)[C@]5(CC)C=CCN6CC[C@]43[C@@H]65)C2)C1 [vincristine]
- Fold change in IC50 (IC50 [Drug + Cobicistat]/IC50 [Drug]) (A-204): 4.4 fold
- Fold change in IC50 (IC50 [Drug + Cobicistat]/IC50 [Drug]) (A-498): 3.2 fold
- Fold change in IC50 (IC50 [Drug + Cobicistat]/IC50 [Drug]) (A-549): 1.9 fold
- Fold change in IC50 (IC50 [Drug + Cobicistat]/IC50 [Drug]) (A375): 4.4 fold
- Fold change in IC50 (IC50 [Drug + Cobicistat]/IC50 [Drug]) (A388): 3.7 fold
- Fold change in IC50 (IC50 [Drug + Cobicistat]/IC50 [Drug]) (ACHN): 3.4 fold
- Fold change in IC50 (IC50 [Drug + Cobicistat]/IC50 [Drug]) (BT-549): 2.9 fold
- Fold change in IC50 (IC50 [Drug + Cobicistat]/IC50 [Drug]) (BxPC-3): 4.1 fold
- Fold change in IC50 (IC50 [Drug + Cobicistat]/IC50 [Drug]) (DLD-1): 2.0 fold
- Fold change in IC50 (IC50 [Drug + Cobicistat]/IC50 [Drug]) (Daoy): 4.6 fold
- Fold change in IC50 (IC50 [Drug + Cobicistat]/IC50 [Drug]) (DoTc2 4510): 6.2 fold
- Fold change in IC50 (IC50 [Drug + Cobicistat]/IC50 [Drug]) (HCT 116): 1.4 fold
- Fold change in IC50 (IC50 [Drug + Cobicistat]/IC50 [Drug]) (K-562): 3.5 fold
- Fold change in IC50 (IC50 [Drug + Cobicistat]/IC50 [Drug]) (KU812): 3.7 fold
- Fold change in IC50 (IC50 [Drug + Cobicistat]/IC50 [Drug]) (MG-63): 3.8 fold
- Fold change in IC50 (IC50 [Drug + Cobicistat]/IC50 [Drug]) (MIA PaCa-2): 3.6 fold
- Fold change in IC50 (IC50 [Drug + Cobicistat]/IC50 [Drug]) (OVCAR-3): 4.0 fold
- Fold change in IC50 (IC50 [Drug + Cobicistat]/IC50 [Drug]) (PA-1): 4.2 fold
- Fold change in IC50 (IC50 [Drug + Cobicistat]/IC50 [Drug]) (RT4): 4.0 fold
- Fold change in IC50 (IC50 [Drug + Cobicistat]/IC50 [Drug]) (SHP-77): 2.6 fold
- Fold change in IC50 (IC50 [Drug + Cobicistat]/IC50 [Drug]) (SJCRH30): 3.5 fold
- Fold change in IC50 (IC50 [Drug + Cobicistat]/IC50 [Drug]) (SK-N-FI): 2.7 fold
- Fold change in IC50 (IC50 [Drug + Cobicistat]/IC50 [Drug]) (SNU-C2B): 2.4 fold
- Fold change in IC50 (IC50 [Drug + Cobicistat]/IC50 [Drug]) (SUP-T1): 3.6 fold
- Fold change in IC50 (IC50 [Drug + Cobicistat]/IC50 [Drug]) (SW48): 2.7 fold
- Fold change in IC50 (IC50 [Drug + Cobicistat]/IC50 [Drug]) (SW620): 3.0 fold
- Fold change in IC50 (IC50 [Drug + Cobicistat]/IC50 [Drug]) (SW948): 3.5 fold
- Fold change in IC50 (IC50 [Drug + Cobicistat]/IC50 [Drug]) (T24): 4.4 fold
- Fold change in IC50 (IC50 [Drug + Cobicistat]/IC50 [Drug]) (VA-ES-BJ): 5.4 fold
- Fold change in IC50 (IC50 [Drug + Cobicistat]/IC50 [Drug]) (TT): 4.8 fold

Structure (SMILES): Cc1nc(Nc2ncc(C(=O)Nc3c(C)cccc3Cl)s2)cc(N2CCN(CCO)CC2)n1 [dasatinib]
- Fold change in IC50 (IC50 [Drug + Cobicistat]/IC50 [Drug]) (A-204): 2.2 fold
- Fold change in IC50 (IC50 [Drug + Cobicistat]/IC50 [Drug]) (A-498): 1.4 fold
- Fold change in IC50 (IC50 [Drug + Cobicistat]/IC50 [Drug]) (A-549): 1.0 fold
- Fold change in IC50 (IC50 [Drug + Cobicistat]/IC50 [Drug]) (A375): 1.3 fold
- Fold change in IC50 (IC50 [Drug + Cobicistat]/IC50 [Drug]) (A388): 1.9 fold
- Fold change in IC50 (IC50 [Drug + Cobicistat]/IC50 [Drug]) (ACHN): 2.8 fold
- Fold change in IC50 (IC50 [Drug + Cobicistat]/IC50 [Drug]) (BT-549): 1.5 fold
- Fold change in IC50 (IC50 [Drug + Cobicistat]/IC50 [Drug]) (BxPC-3): 2.2 fold
- Fold change in IC50 (IC50 [Drug + Cobicistat]/IC50 [Drug]) (DLD-1): 1.4 fold
- Fold change in IC50 (IC50 [Drug + Cobicistat]/IC50 [Drug]) (Daoy): 3.2 fold
- Fold change in IC50 (IC50 [Drug + Cobicistat]/IC50 [Drug]) (DoTc2 4510): 3.0 fold
- Fold change in IC50 (IC50 [Drug + Cobicistat]/IC50 [Drug]) (HCT 116): 3.4 fold
- Fold change in IC50 (IC50 [Drug + Cobicistat]/IC50 [Drug]) (K-562): 1.1 fold
- Fold change in IC50 (IC50 [Drug + Cobicistat]/IC50 [Drug]) (KU812): 1.5 fold
- Fold change in IC50 (IC50 [Drug + Cobicistat]/IC50 [Drug]) (MG-63): 2.9 fold
- Fold change in IC50 (IC50 [Drug + Cobicistat]/IC50 [Drug]) (MIA PaCa-2): 2.2 fold
- Fold change in IC50 (IC50 [Drug + Cobicistat]/IC50 [Drug]) (OVCAR-3): 1.6 fold
- Fold change in IC50 (IC50 [Drug + Cobicistat]/IC50 [Drug]) (PA-1): 2.6 fold
- Fold change in IC50 (IC50 [Drug + Cobicistat]/IC50 [Drug]) (RT4): 2.5 fold
- Fold change in IC50 (IC50 [Drug + Cobicistat]/IC50 [Drug]) (SHP-77): 1.4 fold
- Fold change in IC50 (IC50 [Drug + Cobicistat]/IC50 [Drug]) (SJCRH30): 1.4 fold
- Fold change in IC50 (IC50 [Drug + Cobicistat]/IC50 [Drug]) (SK-N-FI): 2.0 fold
- Fold change in IC50 (IC50 [Drug + Cobicistat]/IC50 [Drug]) (SNU-C2B): 0.9 fold
- Fold change in IC50 (IC50 [Drug + Cobicistat]/IC50 [Drug]) (SUP-T1): 1.4 fold
- Fold change in IC50 (IC50 [Drug + Cobicistat]/IC50 [Drug]) (SW48): 2.2 fold
- Fold change in IC50 (IC50 [Drug + Cobicistat]/IC50 [Drug]) (SW620): 3.2 fold
- Fold change in IC50 (IC50 [Drug + Cobicistat]/IC50 [Drug]) (SW948): 1.2 fold
- Fold change in IC50 (IC50 [Drug + Cobicistat]/IC50 [Drug]) (T24): 3.9 fold
- Fold change in IC50 (IC50 [Drug + Cobicistat]/IC50 [Drug]) (VA-ES-BJ): 3.1 fold
- Fold change in IC50 (IC50 [Drug + Cobicistat]/IC50 [Drug]) (TT): 0.8 fold
